Laboratory results: US8034806B2, “Bicyclic mGluR5 positive allosteric modulators and methods of making and using same” (Vanderbilt University, priority 2007, dated 2011)
pEC50: −log10 of the molar value.

Biological target: T1, rat mGluR5 (Rattus norvegicus, UniProt P31424)
T1 construct: expressed in transfected cells; host or cells: HEK (human embryonic kidney) cells
Experiment: Potentiation of glutamate response, calcium fluorescence (FDSS) in HEK cells transfected with rat mGluR5
Format: cell-based
Details: for pEC50: HEK cells transfected with rat mGluR5, EC20 concentration of glutamate, read-out: mGluR5 Potentiator EC50; for mGluR5 Potentiator Max: maximum extent of potentiation, normalized to the maximal response to agonist, in % (unit assumed)
Method: Human embryonic kidney (HEK) cells transfected with rat mGluR5 were plated in clear bottom assay plates for assay in a Functional Drug Screening System (FDSS). The cells were loaded with a […] fluorescent dye (e.g., Fluo-4), and the plates were washed and placed in the FDSS instrument. After establishment of a fluorescence baseline for twelve seconds, the compounds of the present invention were added to the cells, and the response in cells was measured. Five minutes later, an mGluR5 agonist (e.g., glutamate, 3,5-dihydroxyphenylglycine, or quisqualate) was added to the cells, and the response of the cells was measured. Potentiation of the agonist response of mGluR5 by the compounds in the present invention was observed as an increase in response to non-maximal concentrations of agonist (here, glutamate) in the presence of compound compared to the response to agonist in the absence of compound.
The above described assay operated in two modes. In the first mode, a range of concentrations of the present compounds were added to cells, followed by a single fixed concentration of agonist. If a compound acted as a potentiator, an EC50 value for potentiation and a maximum extent of potentiation by the compound at this concentration of agonist was determined by non-linear curve fitting. In the second mode, several fixed concentrations of the present compounds were added to various wells on a plate, followed by a range of concentrations of agonist for each concentration of present compound; the EC50 values for the agonist at each concentration of compound were determined by non-linear curve fitting. A decrease in the EC50 value of the agonist with increasing concentrations of the present compounds (a leftward shift of the agonist concentration-response curve) is an indication of the degree of mGluR5 potentiation at a given concentration of the present compound. An increase in the EC50 value of the agonist with increasing concentrations of the present compounds (a rightward shift of the agonist concentration-response curve) is an indication of the degree of mGluR5 antagonism at a given concentration of the present compound. The second mode also indicates whether the present compounds also affect the maximum response to mGluR5 to agonists.
Human embryonic kidney (HEK) cells transfected with rat mGluR5 were plated in clear-bottomed, poly-D-lysine-coated assay plates in glutamate-glutamine-free medium growth and incubated overnight at 37° C. in 5% CO2. The following day, cells were loaded with 2 μM calcium indicator dye, fluo-4 AM, for 1 h at 37° C. Dye was removed and replaced with assay buffer containing 1× Hanks balanced salt solution (Invitrogen, Carlsbad, Calif.), 20 mM HEPES, and 2.5 mM probenecid, pH 7.4. Cell plates were then loaded into the Functional Drug Screening System 6000 (FDSS 6000, Hamamatsu, Japan). After establishment of a fluorescence baseline for twelve seconds, the compounds of the present invention were added to the cells, and the response in cells was measured. Five minutes later, an mGluR5 agonist (e.g., glutamate, 3,5-dihydroxyphenylglycine, or quisqualate) was added to the cells, and the response of the cells was measured during a 1 minute incubation with agonists. Typically, the effect of test compounds of the present invention was on an EC20 concentration of glutamate was measured. All test compounds were dissolved and diluted in 100% DMSO and then serially diluted into assay buffer for a 2.5× stock in 0.25% DMSO; stock compounds were then added to the assay for a final DMSO concentration of 0.1%. Calcium fluorescence measures were recorded as fold over basal fluorescence; raw data was then normalized to the maximal response to agonist. Potentiation of the agonist response of mGluR5 by the compounds in the present invention was observed as an increase in response to non-maximal concentrations of agonist (here, glutamate) in the presence of compound compared to the response to agonist in the absence of compound. […]

T1 sequence (P31424 21-1203): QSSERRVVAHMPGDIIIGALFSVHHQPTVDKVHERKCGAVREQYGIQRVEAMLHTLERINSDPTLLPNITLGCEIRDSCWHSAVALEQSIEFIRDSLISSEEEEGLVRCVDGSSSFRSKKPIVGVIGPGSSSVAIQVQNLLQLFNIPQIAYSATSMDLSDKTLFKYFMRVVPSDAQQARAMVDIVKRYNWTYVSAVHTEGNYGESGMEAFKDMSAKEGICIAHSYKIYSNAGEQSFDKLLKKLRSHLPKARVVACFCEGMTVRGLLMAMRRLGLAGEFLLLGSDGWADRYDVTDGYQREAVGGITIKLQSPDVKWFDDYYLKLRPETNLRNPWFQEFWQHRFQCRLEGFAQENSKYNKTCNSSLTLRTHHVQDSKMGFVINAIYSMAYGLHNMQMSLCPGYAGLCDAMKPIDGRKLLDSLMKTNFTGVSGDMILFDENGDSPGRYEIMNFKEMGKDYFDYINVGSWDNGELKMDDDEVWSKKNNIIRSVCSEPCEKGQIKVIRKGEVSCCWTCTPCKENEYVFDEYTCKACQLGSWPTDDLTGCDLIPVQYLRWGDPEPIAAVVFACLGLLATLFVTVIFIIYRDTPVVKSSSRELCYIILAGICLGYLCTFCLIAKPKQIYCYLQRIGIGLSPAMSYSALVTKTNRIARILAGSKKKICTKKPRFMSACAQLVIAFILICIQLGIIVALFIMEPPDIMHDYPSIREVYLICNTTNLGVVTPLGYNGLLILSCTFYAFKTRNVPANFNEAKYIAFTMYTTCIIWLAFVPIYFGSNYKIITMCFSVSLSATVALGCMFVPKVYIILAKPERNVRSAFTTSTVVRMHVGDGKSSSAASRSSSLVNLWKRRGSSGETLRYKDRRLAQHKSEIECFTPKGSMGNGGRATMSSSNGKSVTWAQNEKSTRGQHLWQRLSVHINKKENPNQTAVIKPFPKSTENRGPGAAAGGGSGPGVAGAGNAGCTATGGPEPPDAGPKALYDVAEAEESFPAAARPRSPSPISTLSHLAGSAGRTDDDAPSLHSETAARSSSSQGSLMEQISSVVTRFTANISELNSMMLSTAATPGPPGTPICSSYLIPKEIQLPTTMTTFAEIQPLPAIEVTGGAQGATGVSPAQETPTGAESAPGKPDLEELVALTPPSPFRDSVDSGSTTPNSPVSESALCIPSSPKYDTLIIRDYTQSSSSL

pEC50	mGluR5 Potentiator Max	Compound
7.60	53.4	CN1CCc2cc(C#Cc3ccccc3)ccc2C1=O [VU000068]
7.79	96.5	CCCN1CCc2cc(C#Cc3ccccc3)ccc2C1=O [VU000069]
7.02	96.7	CCCCN1CCc2cc(C#Cc3ccccc3)ccc2C1=O [VU000070]
6.26	89.9	O=C1c2ccc(C#Cc3ccccc3)cc2CCN1Cc1ccccc1 [VU000071]
7.11	88.4	O=C(CN1CCc2cc(C#Cc3ccccc3)ccc2C1=O)OCc1ccccc1 [VU000072]
7.06	85.4	CCOC(=O)C(CC)N1CCc2cc(C#Cc3ccccc3)ccc2C1=O (stereo not shown) [VU000073]
7.76	69.4	O=C1c2ccc(C#Cc3ccccc3)cc2CCN1CC1CC1 [VU000098]
7.57	90.7	O=C1c2ccc(C#Cc3ccccc3)cc2CCN1CC1CCC1 [VU000099]
5.39	76.3	O=C1c2ccc(C#Cc3ccccc3)cc2CCN1CCN1CCC1 [VU000100]
5.45	84	O=C1c2ccc(C#Cc3ccccc3)cc2CCN1CCN1CCOCC1 [VU000101]
5.39	45.7	O=C1c2ccc(C#Cc3ccccc3)cc2CCN1CCN1CCC(O)CC1 [VU000102]
6.21	53.4	Cc1ccccc1C#Cc1ccc2c(c1)CCNC2=O [VU000105]
6.76	75.7	Cc1cccc(C#Cc2ccc3c(c2)CCNC3=O)c1 [VU000106]
6.59	81	O=C1NCCc2cc(C#Cc3ccc(F)cc3)ccc21 [VU000107]
6.84	80.4	O=C1NCCc2cc(C#Cc3ccccc3F)ccc21 [VU000108]
	28.2	COc1ccc(C#Cc2ccc3c(c2)CCNC3=O)cc1 [VU000109]
5.47	58.1	COc1cccc(C#Cc2ccc3c(c2)CCNC3=O)c1 [VU000110]
5.31	53.2	O=C1NCCc2cc(C#Cc3ccccc3Cl)ccc21 [VU000111]

pEC50	mGluR5 Potentiator Max	Compound
5.44	49.7	Cc1cc(C#Cc2ccc3c(c2)CCNC3=O)ccc1F [VU000112]
	28.6	O=C1NCCc2cc(C#Cc3ccc(Cl)cc3)ccc21 [VU000113]
6.33	67.9	O=C1NCCc2cc(C#Cc3cccc(Cl)c3)ccc21 [VU000114]
6.07	58.7	O=C1NCCc2cc(C#Cc3ccc(F)cc3F)ccc21 [VU000115]
5.52	35.6	O=C1NCCc2cc(C#Cc3cc(F)cc(F)c3)ccc21 [VU000116]
6.61	58	O=C1NCCc2cc(C#Cc3ccncc3)ccc21 [VU000117]
	28.9	CN(C)c1ccc(C#Cc2ccc3c(c2)CCNC3=O)cc1 [VU000118]
	29.7	COc1ccc(C#Cc2ccc3c(c2)CCNC3=O)c(C)c1 [VU000119]
	33.5	O=C1NCCc2cc(C#Cc3cccc(C(F)(F)F)c3)ccc21 [VU000120]
	34.8	O=C1NCCc2cc(C#Cc3ccccc3C(F)(F)F)ccc21 [VU000121]
6.02	53.7	O=C(CN1CCc2cc(C#Cc3ccccc3)ccc2C1=O)NCC1CC1 [VU000124]
5.51	52.6	O=C(CN1CCc2cc(C#Cc3ccccc3)ccc2C1=O)NC1CC1 [VU000125]
8.78	35.4	CN(C)CCNC(=O)CN1CCc2cc(C#Cc3ccccc3)ccc2C1=O [VU000126]
5.51	52.3	COCCNC(=O)CN1CCc2cc(C#Cc3ccccc3)ccc2C1=O [VU000127]
	37.6	O=C(CN1CCc2cc(C#Cc3ccccc3)ccc2C1=O)N1CCC(O)CC1 [VU000128]
	30	O=C(CN1CCc2cc(C#Cc3ccccc3)ccc2C1=O)NCCN1CCCCC1 [VU000129]
5.63	55.4	O=C(CN1CCc2cc(C#Cc3ccccc3)ccc2C1=O)N1CCOCC1 [VU000130]
5.14	35.4	CN1CCN(C(=O)CN2CCc3cc(C#Cc4ccccc4)ccc3C2=O)CC1 [VU000131]
